According to PMC5983452 (PLoS ONE, 2018):
Values joined by “and” are separate entries in the source; they are usually repeats but may differ in a detail not shown here. Identical values can stand only once. Counter-ions that a name gives are not always drawn. Blank lines part the entries; values can stand above or below the molecule they belong to.

What was measured:
SMYD2 [1] = target: T1, SMYD2 (Homo sapiens, UniProt Q9NRG4); test: SMYD2 biochemical methylation assay (3H-SAM, H3,1–29 peptide, flashplate); parameters: Full length FLAG-SMYD2 and C-terminally Avi-tagged full length SMYD2 (SMYD2-Avi) were cloned into pFastbac vectors; FLAG (N); His tag with TEV cleavage site (N, cleaved yes); made in house; host or cells: Sf9 insect cells (baculovirus)
Method: Full length FLAG-SMYD2 and C-terminally Avi-tagged full length SMYD2 (SMYD2-Avi) were cloned into pFastbac vectors containing an N-terminal His tag with TEV cleavage site. Virus production was performed using standard protocols and the proteins were coexpressed in either Sf9 (SMYD2) or Hi Five (SMYD2-Avi) cells. After harvest by centrifugation, cell pellets for both proteins were resuspended, sonicated, and then centrifuged to remove cell debris. Protein was purified using nickel affinity chromatography before and after TEV cleavage in a similar fashion as SMYD3. […] SMYD2-Avi was biotinylated using His-tagged BirA enzyme after dialysis into a low salt buffer and the BirA was removed with a final nickel affinity column. […] SMYD3 assays were performed as previously described using N-terminally GST-tagged MAP3K2 protein substrate. […] Reactions were conducted at room temperature with enzyme and inhibitor incubated for 30 minutes before initiating the reaction with substrates. Dose-response curves were tested in duplicate in each experiment. […] Quenched reactions were transferred to a streptavidin-coated flashplate (Perkin Elmer) for capture of the biotinylated peptide. After 2 h incubation at room temperature, the flashplate was washed once with 0.1% Tween-20 and read on a Perkin Elmer Topcount NXT plate reader. Substrate apparent KM values were determined by measuring the initial velocities (v0) in duplicate while varying one substrate at fixed concentration of the second substrate. […] Percent inhibition by compound (% inh) was calculated from Eq 3 %inh=(1-([…] the signal in the presence of compound and max and min are the signals for the DMSO and background controls respectively. […] Mechanism of inhibition was determined by measuring the inhibitor IC50 values while varying the concentration of one substrate at a fixed concentration of the second substrate equal to its KM value. The inhibition constant Ki was calculated from fitting the IC50 versus varied substrate concentration data using the Cheng-Prusoff equations for mixed-type and noncompetitive inhibition below. α is the coefficient accounting for differences in inhibitor affinity between binding enzyme forms after versus before substrate binding.

[2] = Hepatocyte stability, human; assay type: in vitro ADME, humans; details: for hepatocyte CLint at 1 µM: both sexes, human, cryopreserved hepatocytes, read-out: CLint measured with hepatocytes, Human
[3] = Rat pharmacokinetic study; assay type: in vivo, male Sprague Dawley rats; details: male Sprague Dawley
Method: 2. […] Food was returned 4 hours after dosing. […] 4. […] Food was returned 4 hours after dosing. […] Supplemental Results:SMYD2 compound characterization […] The […] nM (Figure S8A).

in vitro [4] = assay type: in vitro ADME, cyno-monkeys; details: male, monkey, microsomes, pH 7.4
in vitro [5] = details: male, CD-1, mouse, plasma, pH 7.4
Method: (§1) Caco-2 permeability. Caco-2 cells (obtained from the ATCC), between passage numbers 40 to 60, were seeded onto Millipore
(§2) Multiscreen plates at 1x10^5 cells/cm2 in Dulbecco's Modified Eagle Medium. Media was changed every two or three days. On
(§3) Day 20, the permeability study was performed using Hanks Balanced Salt Solution (HBSS) pH 7.4 buffer with 25 mM HEPES and
(§4) Incubations were carried out in an atmosphere of 5% CO2 with a relative humidity of
(§5) The monolayers were prepared by rinsing both basolateral and apical surfaces twice with HBSS at 37°C. Cells were
(§6) then incubated with HBSS in both apical and basolateral compartments for 40 min to stabilize physiological parameters. HBSS […]
(§7) removed and apical and basolateral samples diluted for analysis by LC-MS/MS. Permeability was assessed in duplicate, on two
(§8) different occasions. […] Compounds were quantified by LC-MS/MS analysis using a 5 point calibration curve. The starting concentration (C0) was determined from the dosing solution and
(§9) experimental recovery calculated from C0 and both apical and basolateral compartment concentrations. […]
(§10) (Papp) for each compound was calculated as: (dQ/dt)/(C0xA), where dQ/dt is the rate of permeation of the drug across the cells, C0 […]
(§11) Plasma protein binding. Plasma protein binding was assessed by equilibrium dialysis utilizing the HT-dialysis cell format with a […]

in vitro [6] = assay type: in vitro ADME; details: plasma
Method: After stirred for 30 min at 25 °C, NaBH3CN […]
mixture was concentrated under vacuum. […] The combined organic […]
The crude product was further
The fractions containing product were combined and concentrated. […]
cyclopropylisoxazole-3-carboxamide hydrochloride as a light yellow solid.
Media was changed every two or three days. On
95% at 37°C. […] Cells were
At 120 min the companion plate was
Permeability was assessed in duplicate, on two […]
different occasions. […] Compounds were quantified by LC-MS/MS analysis using a 5 point calibration curve.
The permeability coefficient
Solutions of test compounds (1 µM, 0.5% final
Incubations were performed in
Haloperidol was incubated in parallel as the control compound for each species.
(7 points) and protein containing solutions (6 points).
Liver microsome (LM) stability. […]
the reaction. The final incubation volume was 50 µL. Negative control incubations were included where phosphate buffer was […]
min. The negative controls were incubated for 45 min only. […]
µL methanol at the appropriate time points.
Subsequently, intrinsic CL (CLint) was […]

[7] = Hepatocyte stability, mouse; assay type: in vitro ADME, CD-1 mice; details: male, CD-1, mouse, cryopreserved hepatocytes, read-out: CLint measured with hepatocytes, Mouse
[8] = Mouse pharmacokinetic study; details: male, CD-1, mouse; for half-life / Vd / clearance / Tmax / bioavailability: plasma
Method: Mouse, rat, dog and monkey pharmacokinetic studies. The studies were performed in accordance with the AAALAC International
administered intravenousely (1 mg/kg in saline, tail vein injection, 2 mL/kg) and orally (5 mg/kg in 0.5%
MC/0.1% Tween 80, oral gavage, 10 mL/kg). Animals were weighed prior to dose administration and had free
access to water and food. At pre-specified time intervals up to 24 hours post-dose, blood samples (approximately
30 μL) were collected from saphenous vein into polypropylene micro centrifuge tubes (containing 2 μL of 1000
IU/ml Heparin-Na as anticoagulant) and stored on wet ice until processed to plasma by centrifugation (2000 rpm
for 5 min at 4C) within 30 min of collection. In the same study, urine was collected for 24 hours. For
intravenousely (2 mg/kg in ethanol:saline (10:90) solution, tail vein injection, 2 mL/kg) and orally (100 mg/kg in
ethanol:saline (20:80) solution, oral gavage, 10 mL/kg). Animals were weighed prior to dose administration and

[9] = Plasma protein binding (equilibrium dialysis), mouse; details: male, CD-1, mouse, pH 7.4
Method: as §1, §2, §3, §4, §5, §6, §7, §8, §9, §10, §11

SMYD2 [10] = target: T1, SMYD2; test: Intracellular BTF3 monomethylation (BTF3me1) western blot; assay type: cell-based; parameters: endogenous in cells; host or cells: 313 cancer cell lines; details: read-out: Intracellular Methylation IC50
Method: Cells were lysed in 1X RIPA Buffer containing 10% SDS and Halt™ Protease Inhibitor Cocktail (Thermo Fisher Scientific) and incubated on ice for 30 minutes before sonication (Amplitude 20%/10sec) twice. Lysates were spun at […] at 4°C for 10min and normalized for protein concentration by BCA assay (Thermo Fisher Scientific). […] Blots were imaged using the Odyssey Imaging System (LICOR Biosciences). […] BTF3me1 is a custom generated polyclonal antibody, affinity purified from serum of rabbits injected with adjuvant conjugated peptide corresponding to methylated K1 of BTF3 (K(Me)-[…]).
SMYD2 catalyzes the methylation of lysine residues on several proteins, including BTF3 [40].

T1 sequence (Q9NRG4 whole entry): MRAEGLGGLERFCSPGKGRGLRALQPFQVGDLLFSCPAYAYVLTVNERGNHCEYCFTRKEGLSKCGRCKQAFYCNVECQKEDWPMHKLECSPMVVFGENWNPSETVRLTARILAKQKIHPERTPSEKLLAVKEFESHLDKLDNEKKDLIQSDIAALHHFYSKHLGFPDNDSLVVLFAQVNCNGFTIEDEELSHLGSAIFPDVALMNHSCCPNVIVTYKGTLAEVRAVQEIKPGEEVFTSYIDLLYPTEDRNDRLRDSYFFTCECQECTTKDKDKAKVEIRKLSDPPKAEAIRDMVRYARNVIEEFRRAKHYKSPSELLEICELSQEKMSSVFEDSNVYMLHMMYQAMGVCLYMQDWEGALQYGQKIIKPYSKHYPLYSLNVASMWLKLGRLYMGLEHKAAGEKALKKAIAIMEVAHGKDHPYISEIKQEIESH

Compound: NC1CCC(S(=O)(=O)N2C3CCC2CC(NC(=O)c2cc(C4CC4)on2)C3)CC1 [EPZ028862, N-((1R,3R,5S)-8-((1r,4R)-4-aminocyclohexylsulfonyl)-8-aza-bicyclo[3.2.1]octan-3-yl)-5-cyclopropylisoxazole-3-carboxamide hydrochloride]
IC50 (SMYD2 [1]; tested in duplicate, read-out: selectivity panel result, SMYD2 (off-target)): > 10000 nM | CLint measured with hepatocytes, Human ([2]; 1 µM): 3.7 µL/min/106 cells and < 3 µL/min/106 cells | hepatocyte CLint at 1 µM [2]: 4.8 µL/min/1e6 cells | bioavailability ([3]; plasma, IV 1 mg/kg, PO 5 mg/kg): 59 ± 10% | half-life ([3]; plasma, IV 1 mg/kg, PO 5 mg/kg): 2.1 ± 0.2 h | clearance ([3]; plasma, IV 1 mg/kg, read-out: CLp): 32.7 ± 4.4 mL/min/kg | Vd ([3]; plasma, IV 1 mg/kg, read-out: Vss): 4.4 ± 0.1 L/kg | Tmax ([3]; plasma, PO 5 mg/kg): 1 h | CL renal ([3]; urine and plasma, IV 1 mg/kg): 21 ± 6 mL/min/kg | microsomal CLint at 1 µM (in vitro [4]): 3.2 µL/min/mg | fraction unbound at 16 h, 1 µM (in vitro [5]): 0.51 | fraction unbound at 16 h, 1 µM (in vitro [6]; dog, pH 7.4): 0.82 | fraction unbound at 16 h, 1 µM (in vitro [6]; rat, pH 7.4, Rat fu (unbound fraction)): 0.64 | hepatocyte CLint at 1 µM [7]: 6.6 µL/min/1e6 cells | half-life [8]: 2 h | Vd ([8]; iv, 1 mg/kg): 9.5 L/kg | clearance ([8]; iv, 1 mg/kg): 79.8 mL/min/kg | Tmax ([8]; po, 5 mg/kg): 0.33 h | bioavailability ([8]; po, 5 mg/kg): ~100% | CL renal ([8]; urine and plasma, iv, 1 mg/kg): 23.6 mL/min/kg

fraction unbound at 16 h, 1 µM [9]: 0.26 | mechanism of inhibition with respect to peptide substrate (SMYD2 [1]; 1 nM enzyme, 20 nM SAM, varied H3,1–29): noncompetitive | IC50 (SMYD2 [1]; IC50 at 20 nM SAM, 1 nM SMYD2, 60 nM H3,1-29, 20 nM SAM): 2.8 ± 0.4 nM | IC50 (SMYD2 [1]; IC50 at 200 nM SAM, 1 nM SMYD2, 60 nM H3,1-29, 200 nM SAM): 3.2 ± 0.5 nM | mechanism of inhibition with respect to SAM (SMYD2 [1]; IC50 compared at two SAM concentrations differing by 10-fold): either noncompetitive or uncompetitive | IC50 (SMYD2 [1]; SMYD2, 20 nM SAM, 60 nM H3,1–29 peptide, read-out: Biochemical IC50): 3.9 nM | Ki (SMYD2 [1]; varied H3,1–29 peptide, Eq 6, read-out: Ki (noncompetitive versus peptide)): 3.9 ± 0.4 nM | hepatocyte CLint at 1 µM [2]: 6 µL/min/1e6 cells | hepatocyte CLint at 1 µM [7]: 10.9 µL/min/1e6 cells | IC50 (SMYD2 [10]): 2.9 nM | half-life [8]: 3.2 ± 1 h | Vd ([8]; iv, 2 mg/kg): 4.5 ± 1 L/kg | clearance ([8]; iv, 2 mg/kg): 37.4 ± 6.7 mL/min/kg | bioavailability ([8]; oral, 10 mg/kg): 241 ± 20% | Tmax ([8]; po, 10 mg/kg): 1.7 ± 0.6 h
Compound: O=C(NC1CN(Cc2cnn(Cc3ccc(Cl)cc3)c2)C1)c1cn(C2CC2)nn1 [EPZ033294]
